Experimental data as given in patent EP0054593A1, “Myocardium protecting pyrrole derivatives with anti-arythmic and anti-platelet aggregation activity, process for their preparation and medicines containing them” (SANOFI S.A., priority 1980, dated 1982).
Read-outs that look alike come from different tables or passages of the source.

Legend:
[1] = test system: agrégation plaquettaire induite par le collagène; test: In vitro collagen-induced platelet aggregation in platelet-rich plasma (Born turbidimetric technique); format: cell-based, humain; conditions: for IC50: 10 min; for inhibition at 100 µM: concentration 100 µM, inhibition of maximal aggregation amplitude versus control, read-out: % d'inhibition
Excerpt: (§1) Les études in vitro et ex vivo de l'activité antiagrégante ont été réalisées selon la technique turbidiurétrique de Born.
Les études in vitro ont été réalisées sur du plasma riche en plaquettes (PRP) préparé à partir de sang veineux humain.
Les diverses solutions des produits à tester ont été préparées extemporanément. Les CM 7753, 7611, 7640, 7921, 7954, - 40018, 40020 ont été dissous à une concentration de 2 x 10^-2 M dans l'acétone.
Des solutions aqueuses à 2 x 10 ^-3 M ont été préparées pour les CM 40169, 40178, 2 µl des solutions acétoniques des produits ou 40 µl des solutions aqueuses sont incubés pendant 10 min à 37°C avec, respectivement, 388 et 350 µl de PRP. Après cette période d'incubation, 10 µl de la solution de collagène à 40 µg/ml sont additionnés. Pour les contrôles, 2 µl d'acétone ou 40 µl d'eau distillée sont utilisés.
(§2) L'agrégation plaquettaire a été quantifiée par la détermination graphique de l'amplitude maximale d'agrégation (AM).
(§3) Les résultats sont exprimés en % d'inhibition de ce paramètre calculé par rapport au contrôle (100 % d'agrégation). Résultats

[2] = test system: tachycardie ventriculaire; test: Ventricular arrhythmia model: coronary metal coil, myocardial infarction, telemetered ECG; format: in vivo, chiens; conditions: 50 mg/kg P.O., dogs; for Effet sur la tachycardie ventriculaire: rythme sinusal ou amélioration: sinus rhythm restored or improvement of the ratio of abnormal to sinus complexes
Excerpt: Le pouvoir antiarythmique de ces molécules a été apprécié sur un modèle animal d'arythmie ventriculaire.
Des chiens bâtards sont anesthésiés puis soumis à la mise en place, par cathétérisme rétrograde, d'une spire métallique dans le lit coronarien. Dans le même temps, un micro-émetteur modulateur de fréquence est fixé au dos de l'animal et relié à deux électrodes précordiales.
L'animal remis dans son box accuse alors une thrombose progressive de l'artère interventriculaire antérieure. Ainsi, se constitue un infarctus myocardique localisé et transmural, générateur d'une activité électrique anormale, mais répétitive : tachycardie ventriculaire.
Dans cet état, les drogues sont administrées per os (P.O.) et le système télémétré permet de suivre en temps réel l'évolution de la disrythmie.
Un comptage des complexes systoliques sinusaux et pathologies est assuré en permanence par des procédés électroniques.
Ainsi, peut-on quantifier la qualité et la durée d'action du produit.
L'activité des produits essayés sur la tachycardie ventriculaire est exprimée soit par le rétablissement du rythme sinusal, soit par une amélioration notable du rapport : • nombre de complexes anormaux
nombre de complexes sinusaux

[3] = test system: ADP; test: Ex vivo ADP-induced platelet aggregation after oral dosing (Born technique); format: in vivo, babouin; conditions: baboons, 50 mg/kg/j oral
Description: as §1
(§4) Les études ex vivo chez le babouin ont porté uniquement sur l'activité antiagrégante du CM 7753. Dans ce cas, le CM 7753 est administré par voie buccale à raison de 50 mg/kg/j pendant une période de 5 jours.
(§5) Les prélèvements sanguins pour l'analyse de l'agrégation plaquettaire ont été effectués avant l'administration du produit, 2 h après l'administration de 50 mg/kg au jour 1 et 2 h après la dernière administration au jour 5.
as §2, §3

[4] = test system: agrégation plaquettaire induite par le collagène; test: Ex vivo collagen-induced platelet aggregation after oral dosing (Born technique); format: in vivo, babouin; conditions: Papio, 120 h, four baboons, 50 mg/kg/j oral, after 5 days of treatment, read-out: % d'inhibition
Description: as §1, §4, §5, §2, §3

Row | Structure (SMILES) | Effet sur la tachycardie ventriculaire: rythme sinusal ou amélioration [2] | inhibition at 100 µM ([1]; human PRP, collagen) | further results
1 | CC(C)N(CCC(C(N)=O)(c1ccccc1)n1cccc1)C(C)C (stereo not drawn) [CM 7611, Phényl-2 (pyrrolyl-l)-2 diisopropylamino-4 butyramide] | 70-90% |  | IC50 [1]: ~30 µM
2 | Cc1ccc(C)n1C(CCN(C(C)C)C(C)C)(C(N)=O)c1ccccc1 (stereo not drawn) [CM 7640] | Rythme sinusal ou amélioration à 90 % durant 90 min |  | IC50 [1]: ~30 µM; Effet sur la tachycardie ventriculaire: duration of effect [2]: Rythme sinusal ou amélioration à 90 % durant 90 min
3 | Cc1ccc(C)n1C(CCN(C(C)C)C(C)C)C(N)=O (stereo not drawn) [CM 7753, (Diméthyl-2,5 pyrrolyl-1)-2 diisopropylamino-4 butyramide] | 90% |  | activité antiagrégante vis-à-vis de l'ADP [3]: activité antiagrégante de moindre importance; IC50 ([1]; human PRP, 10 min incubation at 37°C, collagen, approximate value, read-out: concentration qui inhibe à 50 % l'agrégation plaquettaire): ~100 µM; inhibition at 50 mg/kg [4]: 100%
4 | CC(C)N(CCC(C(N)=O)n1cccc1)C(C)C (stereo not drawn) [CM 7921] |  | 20 to 30% | 
5 | CC(C)N(CCC(C(N)=O)(c1ccccn1)n1cccc1)C(C)C (stereo not drawn) [CM 7954, (Pyridyl-2)-2 (pyrrolyl-l)-2 diisopropylamino-4 butyramide] |  |  | IC50 ([1]; read-out: concentration qui inhibe à 50 % l'agrégation plaquettaire): ~100 µM
6 | Cc1ccc(C)n1C(CCN1CCN2CCCC2C1)C(N)=O (stereo not drawn) [CM 40018, (Diméthyl-2,5 pyrrolyl)-1 (diaza-1,4 bicyclo[4.3.0]-nonyl-4)-4 butyramide] |  | 20 to 30% | 
7 | CCc1ccc(CC)n1C(CCN(C(C)C)C(C)C)C(N)=O (stereo not drawn) [CM 40020] |  | 20 to 30% | 
8 | Cc1ccc(C)n1C(CCN(C(C)C)C1CCCCC1)C(N)=O (stereo not drawn) [CM 40169] |  | 20 to 30% | 
9 | CCC(C)N(CCC(C(N)=O)n1c(C)ccc1C)C(C)CC (stereo not drawn) [CM 40178] |  | 20 to 30% | 
